This test relates to PMA-induced release of endogenous TNFα from human monocytic U-937 cells. The experiment in a line: ELISA-based TNFα release assay, PMA-induced, U-937 cells. Type of test: cell-based. Conditions: U-937, 1 h, PMA 25 ng/ml, Batimastat at 10 μM. On the procedure: In brief, on day 1, Nunc black MaxiSorp® 96-well plates (Thermo Fisher Scientific, USA) were coated overnight with 100 μl per well of mouse anti-human TNFα capture antibody (provided as part of the DuoSet ELISA kit) at 4 μg/ml TBS at 4° C. On day 2, the capture antibody solution was removed and MaxiSorp® plates were blocked with 300 μl per well of TBS, 1% BSA at room temperature for 1-2 hours. Meanwhile, 80,000 U-937 (European Collection of Authenticated Cell Cultures, UK) cells in 80 μl of normal growth medium were seeded in each well of Greiner CELLSTAR V-bottom 96-well plates (Thermo Fisher Scientific, USA) and pre-incubated with 20 μl per well of standard growth medium supplemented with Batimastat (BB94, Abcam, UK) at 50 μM as positive control (for a final concentration of 10 μM in the resulting 100 μl sample volume), mouse IgG antibody (Thermo Fisher Scientific, USA) at 5 μg/ml as isotype control (for a final concentration of 1 μg/ml in the resulting 100 μl sample volume) or antibodies of the invention at 5 μg/ml (for a final concentration of 1 μg/ml in the resulting 100 μl sample volume) at 37° C., 5% CO2 for 30 minutes. […] Using an infinite M1000 (Tecan Group, Switzerland) microplate reader, the fluorescence of each well was collected at an excitation wavelength of 435 nm and an emission wavelength of 555 nm. […]
Background: ELISA stands for enzyme-linked immunosorbent assay.

A word on the inhibition: it is the relative decrease from the control value, in per cent. For `CNC(=O)[C@H](Cc1ccccc1)NC(=O)[C@H](CC(C)C)[C@H](CSc1cccs1)C(=O)NO` [Batimastat], the inhibition at 10 µM was 98.7% (murine (m) and chimeric (ch) antibodies and IgG at 3 μg/ml); 100% (recombinant murine antibodies and IgG at 1 μg/ml).
